Consider 88 compounds from ChEMBL document CHEMBL5604063, “ASAP - DENV-2 NS2B-NS3 protease fluorescence dose response” (2024).

“And” between values parts separate entries of the source, which are not always exact repeats. Identical values can stand only once.

The assay deals with Genome polyprotein (dengue virus type 2, UniProt P29990). The class given is functional, Thailand/16681/1984.
Sequence of Genome polyprotein (P29990 1346-1475 limits assumed): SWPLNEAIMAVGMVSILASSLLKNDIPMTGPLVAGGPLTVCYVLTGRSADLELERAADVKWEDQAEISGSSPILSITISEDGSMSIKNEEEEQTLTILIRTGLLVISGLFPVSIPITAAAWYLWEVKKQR
Sequence of Genome polyprotein (P29990 1476-2093 limits assumed): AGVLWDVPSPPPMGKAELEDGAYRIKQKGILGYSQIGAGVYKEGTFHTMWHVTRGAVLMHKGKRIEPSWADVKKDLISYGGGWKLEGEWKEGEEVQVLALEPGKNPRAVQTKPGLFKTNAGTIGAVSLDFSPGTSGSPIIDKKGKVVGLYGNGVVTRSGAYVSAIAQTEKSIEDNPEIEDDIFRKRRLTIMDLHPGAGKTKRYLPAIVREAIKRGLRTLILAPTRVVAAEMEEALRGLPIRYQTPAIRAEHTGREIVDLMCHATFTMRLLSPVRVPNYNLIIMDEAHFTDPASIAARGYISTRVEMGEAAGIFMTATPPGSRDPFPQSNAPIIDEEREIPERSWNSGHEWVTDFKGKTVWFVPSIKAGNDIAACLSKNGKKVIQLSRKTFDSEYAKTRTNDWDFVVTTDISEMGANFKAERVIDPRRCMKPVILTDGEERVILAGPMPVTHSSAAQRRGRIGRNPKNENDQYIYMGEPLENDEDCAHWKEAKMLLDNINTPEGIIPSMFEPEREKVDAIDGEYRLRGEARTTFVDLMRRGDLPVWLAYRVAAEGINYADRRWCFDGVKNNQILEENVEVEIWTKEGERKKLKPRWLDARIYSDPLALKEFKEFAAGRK

Compound `O=C(O)c1cc(Cl)ccc1S(=O)(=O)NC1CCN(Cc2ccc(F)c(F)c2)CC1` had an IC50 of over 99.5 µM. The value for `CCN1CCN(c2ccc(NS(=O)(=O)c3ccc(Cl)cc3C(=O)O)cc2)CC1` was over 99.5 µM. In the case of `CCn1c(=O)c(N2C[C@H]3CCC[C@H]2C3)nc2ccccc21`, the IC50 was over 99.5 µM. With `O=C(O)c1cc(Cl)ccc1S(=O)(=O)Nc1ccc(N2CCCCC2)c(Cl)c1`, the IC50 was determined as 71.6 µM.

In turn, `O=C(O)c1cc(Cl)ccc1S(=O)(=O)NC1CCN(c2ccc(C(F)(F)F)cn2)CC1` came in with a 50% inhibitory concentration (IC50) of over 99.5 µM.

As for `O=C(O)Cc1cc(NS(=O)(=O)c2ccc(Oc3ccccc3Cl)cc2)ccc1Cl`, the midpoint of inhibition, the IC50, lay at 96.1 µM. Compound `CCC(=O)N1CCc2ccc(NS(=O)(=O)c3ccc(Cl)cc3C(=O)O)cc21` came in with an IC50 of over 99.5 µM. Turning to `NCc1cccc(NC(=O)[C@H](NS(=O)(=O)C2CCCCC2)c2ccc(OCc3ccccc3)cc2)c1`, the IC50 was over 99.5 µM. On to `Cc1nn(C)cc1-c1ccc(S(=O)(=O)Nc2ccc(Cl)cc2C(=O)O)cc1`, for which the IC50 came to 85.4 µM.

Turning to `O=C(Cn1ccnc(N2CC[C@H](CO)C2)c1=O)NCc1nccs1`, the IC50 was over 99.5 µM. Turning to `CCn1ccnc(N2C[C@H](c3c[nH]c4ccccc34)[C@H](N3C(=O)c4ccccc4C3=O)C2)c1=O`, the IC50 is over 99.5 µM. In the case of `O=C(Nc1ccc(NS(=O)(=O)c2ccc(Cl)cc2C(=O)O)cc1)c1ccccc1` it was over 99.5 µM; in that of `COc1ccc(N2CCC(NS(=O)(=O)c3ccc(Cl)cc3C(=O)O)CC2)cc1`, over 99.5 µM; in that of `O=C(O)c1cc(Cl)ccc1S(=O)(=O)N[C@H]1CC[C@@H](Oc2ccccc2)CC1`, over 99.5 µM. In the case of `NCc1cccc(NC(=O)[C@H](NS(=O)(=O)CC2CCC2)c2ccc(OCc3ccccc3)cc2)c1` it was over 99.5 µM. Take `COc1ccc(NS(=O)(=O)c2ccc(Cl)cc2C(=O)O)cc1-n1nnnc1C`: the IC50 was over 99.5 µM.

Consider `NCc1cccc(NC(=O)[C@H](NC(=O)Cc2ccccc2)c2ccc(OCc3ccccc3)cc2)c1`, for which the IC50 was 32.8 µM and 32.1 µM.

In turn, `O=C(O)c1cc(Cl)ccc1NS(=O)(=O)c1ccc(-c2ccccc2Cl)cc1` had an IC50 of 6.93 µM. The value for `NCc1cccc(NC(=O)[C@H](NC(=O)OCc2ccccc2)c2ccc(Br)cc2F)c1` was 66 µM.

In the case of `Cn1ccnc(N2CCC(NS(=O)(=O)c3ccc(Cl)cc3C(=O)O)CC2)c1=O`, the IC50 is over 99.5 µM. The value for `Cn1cc(-c2cccc([C@H](NC(=O)OCc3ccccc3)C(=O)Nc3cccc(CN)c3)c2)cn1` was over 99.5 µM; that for `COCc1cc(Cl)ccc1NS(=O)(=O)c1ccc(Oc2ccccc2Cl)cc1` was over 99.5 µM. In the case of `CCN(C(=O)Cn1ccnc(N2CC[C@H](CO)C2)c1=O)C(C)C` it was over 99.5 µM. For `NCc1cccc(NC(=O)c2cc(NC(=O)OCc3ccccc3)c(=O)n3c2CCCC3)c1`, the IC50 is over 99.5 µM.

Compound `COc1ncccc1-c1cccc([C@H](NC(=O)OCc2ccccc2)C(=O)Nc2cccc(CN)c2)c1` came in with an IC50 of over 99.5 µM. In turn, `O=C(O)c1cc(Cl)ccc1S(=O)(=O)Nc1ccc(CCN2CCCC2)cc1` displayed a half-inhibitory concentration (IC50) of over 99.5 µM. Compound `Cc1cc(N2CCCCC2)ccc1NS(=O)(=O)c1ccc(Cl)cc1C(=O)O` displayed an IC50 of over 99.5 µM.

`NCc1cccc(NC(=O)[C@H](NC(=O)c2ccns2)c2ccc(OCc3ccccc3)cc2)c1` registered a concentration for half-maximal inhibition (IC50) of over 99.5 µM. With `COc1ccc(NS(=O)(=O)c2ccc(Cl)cc2C(=O)O)cc1N1CCCC1=O`, the IC50 is over 99.5 µM.

With `O=C(O)c1cc(Cl)ccc1S(=O)(=O)Nc1ccc(F)c(N2CCNC2=O)c1`, the IC50 is over 99.5 µM.

Regarding `Cc1nccn1-c1ccc(NS(=O)(=O)c2ccc(Cl)cc2C(=O)O)cc1F`, the IC50 was over 99.5 µM. In turn, `O=C(O)c1cc(Cl)ccc1NS(=O)(=O)c1ccc(-c2ccccc2F)cc1` yielded a half-inhibitory concentration (IC50) of 10.1 µM. The value for `O=C(O)c1cc(Cl)ccc1S(=O)(=O)Nc1ccc(N2CCCS2(=O)=O)cc1` was over 99.5 µM; that for `Cc1cc(N2CCC(NS(=O)(=O)c3ccc(Cl)cc3C(=O)O)CC2)nc(C)n1` was over 99.5 µM; that for `CCOc1cccc(-c2ccc(S(=O)(=O)Nc3ccc(Cl)cc3C(=O)O)cc2)c1` was 4.25 µM and 6.13 µM. On to `O=C(Cn1ccnc(N2CC[C@H](CO)C2)c1=O)Nc1ccccc1`, for which the IC50 is over 99.5 µM.

For `CCn1c(=O)c(N2C[C@H]3C[C@H]2CS(=O)(=O)C3)nc2ccccc21`, the IC50 was over 99.5 µM. In the case of `CCn1c(=O)c(N2CC[C@H]3[C@H]2[C@H]3C(F)(F)F)nc2ccccc21` it was over 99.5 µM; in that of `CS(=O)(=O)c1ccc(-c2cccc([C@H](NC(=O)OCc3ccccc3)C(=O)Nc3cccc(CN)c3)c2)cc1`, 40 µM. With `O=C(O)c1cc(Cl)ccc1NS(=O)(=O)c1ccc(-c2cccnc2)cc1`, 91.3 µM corresponded to half-maximal inhibition (IC50).

The compound `O=C(O)c1cc(Cl)ccc1S(=O)(=O)NC1CCC(N2CCCCC2=O)CC1` (stereo not drawn) came in with an IC50 of over 99.5 µM. Turning to `O=C(O)c1cc(Cl)ccc1S(=O)(=O)Nc1ccc(Oc2ccccn2)cc1`, the IC50 is over 99.5 µM. The value for `Cc1ccc(C(=O)N[C@H](C(=O)Nc2cccc(CN)c2)c2ccc(OCc3ccccc3)cc2)s1` was 97.7 µM. The value for `CS(=O)(=O)c1cncc(-c2cccc([C@H](NC(=O)OCc3ccccc3)C(=O)Nc3cccc(CN)c3)c2)c1` was 71.4 µM; that for `O=C(O)c1cc(Cl)ccc1S(=O)(=O)Nc1ccc(N2CCCCC2)c(F)c1` was over 99.5 µM. Turning to `CCN1C[C@H]2C[C@@H]1CN2c1nc2ccccc2n(CC)c1=O`, the IC50 was over 99.5 µM. On to `Cc1ccc(S(=O)(=O)N2CCC(NS(=O)(=O)c3ccc(Cl)cc3C(=O)O)CC2)cc1`, for which the IC50 was over 99.5 µM. Compound `Cc1cc(OCc2ccccc2)ccc1NS(=O)(=O)c1ccc(Cl)cc1C(=O)O` showed an IC50 of 27.1 µM. In the case of `CCn1c(=O)c(N2CCC[C@@H]2c2cncn2C)nc2ccccc21` it was over 99.5 µM; in that of `CC(C)(C)OC(=O)NCc1cccc(NC(=O)[C@H](NC(=O)OCc2ccccc2)C2CCNCC2)c1`, over 99.5 µM. The compound `N#Cc1ccccc1-c1ccc(S(=O)(=O)Nc2ccc(Cl)cc2C(=O)O)cc1` yielded an IC50 of 25.1 µM. Regarding `CCn1c(=O)c(N2CCC[C@H]2C(=O)NC2CC2)nc2ccccc21`, the concentration for half-maximal inhibition (IC50) was over 99.5 µM. Consider `NCc1cccc(NC(=O)[C@H](NC(=O)CCc2ccccc2)c2ccc(OCc3ccccc3)cc2)c1`, for which the half-maximal inhibitory concentration (IC50) was 14.5 µM and 23.3 µM and 22.9 µM. Compound `NCc1cccc(NC(=O)[C@H](NC(=O)OCc2ccccc2)c2cccc(C3=CCCOC3)c2)c1` gave an IC50 of over 99.5 µM. In the case of `O=C(O)c1cc(Cl)ccc1S(=O)(=O)NC1CCN(CC2CCOCC2)CC1` it was over 99.5 µM; in that of `NCc1cccc(NC(=O)c2cc(NC(=O)OCc3ccccc3)cc3c2OC(F)(F)O3)c1`, over 99.5 µM. The value for `O=C(O)c1cc(Cl)ccc1S(=O)(=O)Nc1ccc(N2CCCCCC2)cc1` was 55.2 µM.

`COc1ccc(NS(=O)(=O)c2ccc(Cl)cc2C(=O)O)cc1OC1CCCC1` registered an IC50 of over 99.5 µM. The value for `O=C(O)c1cc(Cl)ccc1NS(=O)(=O)c1ccc(-c2cn[nH]c2)cc1` was over 99.5 µM. In turn, `CCOc1cc(N2CCN(C)CC2)ccc1NS(=O)(=O)c1ccc(Cl)cc1C(=O)O` returned an IC50 of over 99.5 µM. Regarding `O=C(O)c1cc(Cl)c(F)cc1S(=O)(=O)Nc1ccc(Oc2ccccc2Cl)cc1`, the IC50 was 11.2 µM and 10.7 µM. In the case of `NCc1ccc(NC(=O)c2cc(Cl)cc(NC(=O)OCc3ccccc3)c2)cc1` it was 51.5 µM; in that of `O=C(O)c1cc(Cl)ccc1S(=O)(=O)NC1CCN(S(=O)(=O)c2ccc(I)cc2)CC1`, 81.7 µM; in that of `O=C(O)c1cc(Cl)ccc1S(=O)(=O)Nc1ccc(-c2cccc(F)c2)cc1`, 27 µM. Take `O=C(O)c1cc(Cl)ccc1NS(=O)(=O)c1ccc(-c2cccc(F)c2F)cc1`: it took 8.82 µM to reach half-maximal inhibition (IC50).

In turn, `CC(=O)Nc1cccc(-c2ccc(S(=O)(=O)Nc3ccc(Cl)cc3C(=O)O)cc2)c1` returned an IC50 of 23.9 µM. Compound `CCN1C(=O)CCc2cc(NS(=O)(=O)c3ccc(Cl)cc3C(=O)O)ccc21` gave a half-maximal inhibitory concentration (IC50) of over 99.5 µM. `CN(C(=O)OCc1ccccc1)[C@H](C(=O)Nc1cccc(CN)c1)c1ccc(OCc2ccccc2)cc1` returned an IC50 of 43.8 µM. The value for `O=C(O)c1cc(Cl)ccc1S(=O)(=O)NC1CCN(Cc2ccccn2)CC1` was over 99.5 µM. The value for `CCn1c(=O)c(N2C[C@H](C)C[C@H]2c2ccccc2)nc2ccccc21` was over 99.5 µM; that for `O=C(O)c1cc(Cl)ccc1S(=O)(=O)N[C@H]1CCN(Cc2ccccc2)C2(CC2)C1` was over 99.5 µM; that for `CS(=O)(=O)c1ccc(-c2cccc([C@H](NC(=O)OCc3ccccc3)C(=O)Nc3cccc(CN)c3)c2)cn1` was over 99.5 µM. `CC1(NS(=O)(=O)c2ccc(Cl)cc2C(=O)O)CCN(c2ccccc2)CC1` yielded an IC50 of over 99.5 µM. As to `CCOCC(=O)N[C@H](C(=O)Nc1cccc(CN)c1)c1ccc(OCc2ccccc2)cc1`, the IC50 was over 99.5 µM. For the compound `O=C(O)c1cc(Cl)ccc1S(=O)(=O)NC1CCN(C(=O)c2ccccc2C(F)(F)F)CC1`, the IC50 was over 99.5 µM. In the case of `NCc1cccc(NC(=O)[C@H](NC(=O)OCc2ccccc2)C2CCC(c3ccccc3)CC2)c1` (stereo partly drawn) it was 6.26 µM and 5.78 µM; in that of `NCc1ccccc1NC(=O)c1cc(Cl)cc(NC(=O)OCc2ccccc2)c1`, over 99.5 µM.

Regarding `Cc1cc(C)n(-c2ccc(NS(=O)(=O)c3ccc(Cl)cc3C(=O)O)cc2)n1`, the IC50 was over 99.5 µM. Regarding `O=C(O)c1cc(Cl)ccc1S(=O)(=O)N[C@H]1CCN(Cc2ccccc2)C(=O)C1`, the IC50 was over 99.5 µM. Turning to `O=C(O)c1cc(Cl)ccc1S(=O)(=O)N[C@H]1CC[C@H]2CN(Cc3ccccc3)C[C@H]2C1`, the IC50 is over 99.5 µM.

`Cc1ncc(COc2ccc([C@H](NC(=O)OCc3ccccc3)C(=O)Nc3cccc(CN)c3)cc2)cn1` registered an IC50 of over 99.5 µM. Consider `CCCCN1Cc2ccc(NS(=O)(=O)c3ccc(Cl)cc3C(=O)O)cc2C1`, for which the half-inhibitory concentration (IC50) was over 99.5 µM. As to `CCn1c(=O)c(N2CC[C@]3(CCSC3)C2)nc2ccccc21`, the IC50 was over 99.5 µM. Consider `NS(=O)(=O)c1cccc(-c2ccc(S(=O)(=O)Nc3ccc(Cl)cc3C(=O)O)cc2)c1`, for which the IC50 came to 30.6 µM. Turning to `CCn1c(=O)c(N2CCC[C@@H]2Cc2cccs2)nc2ccccc21`, the IC50 is over 99.5 µM. Regarding `NCc1cccc(NC(=O)c2cc(Br)cc(NC(=O)OCc3ccccc3)c2)c1`, the IC50 came to 54.3 µM. The compound `CC(=O)N1CCN([C@H]2CC[C@H](NS(=O)(=O)c3ccc(Cl)cc3C(=O)O)CC2)CC1` gave a 50% inhibitory concentration (IC50) of over 99.5 µM. In the case of `O=C(O)c1cc(Cl)ccc1S(=O)(=O)Nc1nn(Cc2ccccc2)cc1Cl` it was over 99.5 µM.

One may read the IC50 as the concentration that gives 50% inhibition. A low value points to greater potency in that assay.
